Ten compounds from PubChem BioAssay (NCI) can be followed below.

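Five concentrations, 48 hours, 96-well plates. GI50 = concentration required for 50% inhibition of growth. TGI denotes the concentration required for complete inhibition of growth.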

Assay in all cases: DTP human tumour cell line panel, 48 h
In assay [1] the test system is MDA-MB-435.
In assay [2] the test system is OVCAR-5 ovarian.
Assay [3] deals with LOX IMVI melanoma.
Assay [4] concerns TK-10 renal.
In assay [5] the test system is 786-0 renal.
The subject of assay [6] is NCI-H23 lung.
Assay [7] has as its system M14 melanoma.
Assay [8] deals with CCRF-CEM leukemia.
Assay [9] has as its system SK-MEL-2 melanoma.
Assay [10] has as its system EKVX NSCLC.

For orientation: GI50 means the concentration giving 50% growth inhibition. The term TGI denotes the concentration giving total growth inhibition. In the case of `O=C(O)CCCN1C(=O)/C(=C/C(Cl)=C/c2ccccc2)SC1=S`, the GI50 is 1.94 µM in assay [1]; 2.48 µM in [2]; 0.383 µM in assay [3]; 3.73 µM in [4]; 2.33 µM in [5]; 2.34 µM in assay [6]. Also, the GI50 is 1.81 µM in [7], 0.786 µM in assay [8], 2.47 µM in [9] and 2.21 µM in assay [10]. The total growth inhibition concentration (TGI) in assay [1] was 5.96 µM; in [2], 5.78 µM; in assay [3], 1.38 µM; in [4] it was 9.6 µM; in [5] it was 6.39 µM; in assay [6], 6.27 µM. Further, the total growth inhibition concentration (TGI) in [7] turned out to be 5.12 µM; in assay [8], 10.2 µM; in [9], 7.61 µM; in [10], 5.91 µM.

With `O=C(CCN1CCCC1)Nc1ccc2c(Nc3ccc(F)cc3)c3ccccc3nc2c1`, the GI50 in assay [1] was 1.58 µM; in [2] it was 1.95 µM; in assay [3], 0.606 µM; in assay [4] it was 1.66 µM; in [5] it was 1.21 µM; in assay [6], 1.08 µM. Further, the GI50 in [7] was 1.64 µM; in assay [8], 0.274 µM; in assay [9] it was 1.85 µM; in [10], 1.89 µM. Moreover, the TGI worked out at 3 µM in assay [1]; 4.7 µM in assay [2]; 2.01 µM in assay [3]; 3.97 µM in [4]; 2.77 µM in [5]; 2.63 µM in assay [6]. For the same compound, the TGI in [7] came to 3.53 µM; in [8] it was 11.1 µM; in [9] it was 3.64 µM; in assay [10], 4.69 µM.

Consider `COc1ccc(Cn2cc3c(c2-c2ccccc2)CCc2cnoc2-3)cc1`, for which the GI50 in assay [1] was 0.0311 µM; in assay [2] it was 0.505 µM; in [3], 0.38 µM; in assay [4], more than 34.5 µM; in [5] it was 0.243 µM; in assay [6], 0.234 µM. Further, the GI50 in assay [7] is 0.155 µM; in [8] it was 0.251 µM; in assay [9] it was 2.79 µM; in assay [10] it was 0.425 µM. Further, the TGI in assay [1], in assay [2], in assay [3], in assay [4], in assay [6] and in [7] was more than 100 µM in each case. In addition, the TGI in assay [8], in [9] and in [10] was more than 100 µM each time.

For `CCN(Cc1ccc(Cl)c(Cl)c1)c1ccc2nc(N)nc(N)c2c1C`, the GI50 is less than 0.01 µM in assay [1]; 0.209 µM in assay [2]; 0.0753 µM in assay [4]; less than 0.01 µM in [5]; 0.0284 µM in assay [6]; less than 0.01 µM in [7]. For the same compound, the GI50 in [8] was 0.0252 µM; in assay [9], 1.48 µM. In addition, the TGI in assay [1] came out at 1.49 µM; in assay [2] it was 2.13 µM; in assay [4], 1.91 µM; in [5] it was 1.27 µM; in assay [6], 1.49 µM; in assay [7] it was 1.63 µM. The TGI in [8] stood at 6.3 µM; in [9] it was 3.02 µM; in assay [10], 2.82 µM.

Consider `O=CNC(Cc1cnc[nH]1)C(=O)O` (stereo not given), for which the TGI in assay [1], in assay [2], in assay [3], in assay [4], in assay [5] and in assay [6] was more than 100 µM in each case. In addition, the total growth inhibition concentration (TGI) in assay [7], in assay [8], in [9] and in [10] was more than 100 µM each time.

With `COc1ccc(C2=C(c3ccc(OC)cc3)C(=O)OC2)cc1`, the GI50 was 0.0752 µM in assay [1]; 20.2 µM in assay [2]; 0.964 µM in assay [3]; 1.1 µM in [4]; 2.11 µM in assay [5]; 3.46 µM in [6]. The GI50 was 1.64 µM in [7], 3.29 µM in assay [8], 1.48 µM in [9] and 16.1 µM in [10]. Moreover, the TGI was 0.4 µM in assay [1]; more than 100 µM in assay [2]; 15.1 µM in [3]; 8.01 µM in assay [4]; 10.9 µM in assay [5]; 30.8 µM in [6]. The TGI was 12.4 µM in assay [7], 18.5 µM in assay [8], more than 48.6 µM in assay [9] and more than 100 µM in assay [10].

For the compound `COc1ccc([N+](=O)[O-])c2c(NCCCN(C)C)c(C)c(C)nc12`, the TGI in [1], in assay [2], in assay [3], in [4], in [5] and in assay [6] was more than 100 µM throughout. Moreover, the TGI in assay [7], in assay [8] and in [9] was more than 100 µM each time.

For `COC(=O)c1csc(-c2csc(CCNC(=O)OC(C)(C)C)n2)n1`, the TGI in assay [1], in [2], in [4], in [5], in assay [6] and in [7] was more than 100 µM each time. For the same compound, the TGI in assay [8] and in assay [10] was more than 100 µM each time.

With `N[C@H]1CCC[C@@H](O)C1O` (stereo not given in full), the TGI in assay [1], in [2], in assay [3], in [5], in assay [6] and in assay [7] was more than 100 µM throughout. The TGI in assay [8], in assay [9] and in assay [10] was more than 100 µM in each case.

Turning to `OCc1c(-c2cccs2)oc(-c2cccs2)c1CO`, the GI50 in [1] was 46.9 µM; in assay [2] it was 69.2 µM; in assay [3], 26.6 µM; in assay [4] it was 10.2 µM; in assay [5] it was more than 100 µM; in assay [6], 38.7 µM. The GI50 in assay [7] is 47.8 µM; in [8], 48.7 µM; in assay [10] it was 34.6 µM. For the same compound, the TGI is more than 100 µM in assay [1]; more than 100 µM in [2]; 52.7 µM in [3]; 56.7 µM in assay [4]; more than 100 µM in [5]; more than 100 µM in assay [6]. Besides, the TGI in assay [7], in [8] and in [10] was more than 100 µM in each case.
